Here are results for 1 molecule from article PMC10475101, “Selective steroidogenic cytochrome P450 haem iron ligation by steroid-derived isonitriles” (Communications Chemistry, 2023).

What is called IC50 is the concentration needed to halve the response being measured. A lower IC50 goes with higher potency. A word on the Kd: it is the equilibrium constant for the complex coming apart. Higher therefore signals lower affinity.

The target in one series is T1, CYP17A1 (Homo sapiens, UniProt P05093).
T1 construct: made in house
T1 sequence (P05093 24-508 limits assumed): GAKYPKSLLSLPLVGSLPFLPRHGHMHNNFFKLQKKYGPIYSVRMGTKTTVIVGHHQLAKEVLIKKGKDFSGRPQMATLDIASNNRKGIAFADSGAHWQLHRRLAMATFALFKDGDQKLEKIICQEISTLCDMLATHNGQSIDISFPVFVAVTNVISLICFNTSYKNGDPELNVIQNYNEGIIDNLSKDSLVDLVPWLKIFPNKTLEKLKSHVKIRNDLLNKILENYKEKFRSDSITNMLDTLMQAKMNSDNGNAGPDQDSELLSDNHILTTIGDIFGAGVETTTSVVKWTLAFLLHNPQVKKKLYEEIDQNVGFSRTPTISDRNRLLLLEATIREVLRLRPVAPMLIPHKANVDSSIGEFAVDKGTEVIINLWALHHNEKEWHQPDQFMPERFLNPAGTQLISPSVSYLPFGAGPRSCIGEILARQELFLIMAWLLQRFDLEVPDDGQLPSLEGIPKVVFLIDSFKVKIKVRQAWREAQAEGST
Description: biochemical.

The target of series [1] is T2, CYP3A4 (Homo sapiens, UniProt P08684).
T2 construct: made in house
Put plainly: in vitro. Format: binding. Here is the method: (Adapted from DeVore, et al.)[25] Ligand interaction with the heme iron was evaluated by titrating ligands into a cuvette containing purified CYP17A1[14], CYP2D6 L230D/L231R[26], or CYP3A4[27] and measured using a UV-visible scanning spectrophotometer. Enzyme was diluted to 0.2 µM in 100 mM potassium phosphate buffer (pH 7.4), 20% glycerol, and 100 mM sodium chloride and divided equally between two 5 mL cuvettes to evaluate high-affinity binding. Ligands dissolved in dimethylsulfoxide (DMSO) were added to the sample cuvette and an equal volume of DMSO to the reference cuvette. Difference spectra were recorded from 300 to 500 nm after equilibration of enzyme and ligand. Binding to the enzyme was measured as the difference in maximal and minimal absorbance: A387—A419 for pregnanolone and 3-formyl pregnanolone, and A435—A393 for compound 1 with CYP17A1; A434—A414 for compound 1 with CYP3A4 and CYP2D6. The dissociation constant and maximum spectral change were calculated using tight-binding or quadratic equation. All data fitting was accomplished using GraphPad Prism 9. Details of fitting are provided in Supplementary Information, and numerical data used to generate graphs in Figs. 2, 4 and 5 are provided in Supplementary Data 3 in Excel format.
Target sequence in this assay (P08684 whole entry): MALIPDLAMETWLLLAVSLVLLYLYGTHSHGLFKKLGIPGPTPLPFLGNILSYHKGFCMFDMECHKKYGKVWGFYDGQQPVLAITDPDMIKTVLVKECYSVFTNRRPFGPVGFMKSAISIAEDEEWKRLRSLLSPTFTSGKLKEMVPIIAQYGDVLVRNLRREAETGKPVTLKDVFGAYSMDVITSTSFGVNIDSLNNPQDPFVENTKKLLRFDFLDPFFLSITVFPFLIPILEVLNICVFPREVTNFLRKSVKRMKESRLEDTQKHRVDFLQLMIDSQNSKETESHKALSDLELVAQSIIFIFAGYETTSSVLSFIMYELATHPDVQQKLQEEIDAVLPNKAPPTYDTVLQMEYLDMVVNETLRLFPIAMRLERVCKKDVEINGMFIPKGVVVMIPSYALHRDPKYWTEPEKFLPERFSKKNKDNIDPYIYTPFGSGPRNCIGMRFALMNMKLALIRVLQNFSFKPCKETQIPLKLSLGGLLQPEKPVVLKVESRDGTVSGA

Series [2] addresses T2, CYP3A4. Format: biochemical. As to conditions: concentrations up to 100 µM. As to the method: (Adapted from Bart & Scott)[28]. Metabolic activity of CYP3A4 was evaluated by measuring metabolism of nifedipine to dehydronifedipine […], as detected by HPLC with UV detection at 254 nm. Reactions were carried out in amber microcentrifuge tubes (NFP is light sensitive) in a final volume of 150 μl. A 1:2 ratio of CYP3A4 to recombinant NADPH-cytochrome P450 reductase was mixed and incubated at room temperature for 20 min. This mixture was added to buffer (40 mM HEPES, 30 mM MgCl2, pH 7.4) containing 0.1 mM NFP and increasing concentrations of 1c (0–100 µM). Reaction vials were warmed to 37 °C for 3 min, then catalysis was initiated by adding NADPH to a final concentration of 1 mM. After 20 min, metabolism was quenched by adding 50 µL acetonitrile and placed on ice. […]
187 a baseline absorbance reading from 400 to 500 nm using a UV-visible scanning spectrophotometer, of a 1cm […]
190 phosphate buffer (pH 7.4), 20% glycerol, and 100 mM sodium chloride). A small quantity of sodium dithionite
191 (spatula tip-full) was then added to the cuvette, and the spectra were recorded periodically over time to […]
195 Metabolic activity of CYP17A1 was evaluated by measuring 17α-hydroxylation of progesterone as detected […]
212 dehydronifedipine, as detected by HPLC with UV detection at 254 nm. […]
Target sequence in this assay (P08684 23-503 limits assumed): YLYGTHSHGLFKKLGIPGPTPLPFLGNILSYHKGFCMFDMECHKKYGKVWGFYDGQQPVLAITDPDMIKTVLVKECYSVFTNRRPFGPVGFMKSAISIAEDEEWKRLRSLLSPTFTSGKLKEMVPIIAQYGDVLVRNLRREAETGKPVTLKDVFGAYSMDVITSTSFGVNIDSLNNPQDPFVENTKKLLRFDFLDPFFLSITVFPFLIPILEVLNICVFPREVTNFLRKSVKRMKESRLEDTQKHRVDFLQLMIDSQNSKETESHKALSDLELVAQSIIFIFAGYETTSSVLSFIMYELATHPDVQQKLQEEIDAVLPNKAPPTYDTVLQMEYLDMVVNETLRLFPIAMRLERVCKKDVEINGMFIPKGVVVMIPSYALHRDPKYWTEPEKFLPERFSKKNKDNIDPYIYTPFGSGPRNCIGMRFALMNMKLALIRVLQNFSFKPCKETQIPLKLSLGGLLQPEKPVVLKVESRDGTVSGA

Description for CYP17A1: Metabolic activity of CYP17A1 was evaluated by measuring 17α-hydroxylation of progesterone as detected by HPLC with UV detection at 240 nm. A 1:4 ratio of CYP17A1 to recombinant NADPH-cytochrome P450 reductase was mixed and incubated on ice for 20 min. […] Reaction vials were warmed to 37 °C for 3 min, then catalysis was initiated by adding NADPH to a final concentration of 1 mM. After 10 min, metabolism was quenched by adding 300 µL of 20% trichloroacetic acid and placed on ice. The reaction vials were centrifuged to pellet the precipitated protein, then the supernatant was injected onto a C18 column for HPLC identification of product. Metabolite elution was normalized to β-estradiol as an internal standard. A standard curve of known product concentrations was used to convert normalized area under curve to amount of product produced. A four-parameter variable-slope equation was used to fit the data and calculate IC50 values for inhibitors using GraphPad Prism 9.
196 by HPLC with UV detection at 240 nm. A 1:4 ratio of CYP17A1 to recombinant NADPH-cytochrome P450
197 reductase was mixed and incubated on ice for 20 minutes. This mixture was added to buffer (50 mM Tris, pH
199 Reaction vials were warmed to 37 °C for three minutes, then catalysis was initiated by adding NADPH to a
200 final concentration of 1 mM. After 10 minutes, metabolism was quenched by adding 300 µL of 20%
201 trichloroacetic acid and placed on ice. The reaction vials were centrifuged to pellet the precipitated protein,
202 then the supernatant was injected onto a C18 column (Phenomenex, Luna, 50 x 4.6 mm) for HPLC. The 30-
203 minute HPLC method ran at 0.8 mL/min and started with a mobile phase of 60% acetonitrile, 40% water with
204 0.2% acetic acid for five minutes, in creased to 80% acetonitrile over 10 minutes, held at 80% acetonitrile for
205 five minutes, 100% acetonitrile for five minutes, then returned to 60% acetonitrile to prepare for the next
206 sample. Metabolite elution was normalized to β-estradiol as an internal standard. A standard curve of known
207 product concentrations was used to convert normalized area under curve to amount of product produced. A
208 four-parameter variable-slope equation (Y=Ymin + (Ymax-Ymin)/(1+(IC50/X)^(Hill Slope))) was used to fit the data
209 and calculate IC50 values for inhibitors using GraphPad Prism 9.

Take `[C-]#[N+][C@H](C)[C@H]1CC[C@H]2[C@@H]3CC[C@H]4C[C@@H](OC=O)CC[C@]4(C)[C@H]3CC[C@]12C` [Compound 1, 3β-formyl-5α-pregnanolone-(R)-20-isonitrile]: on CYP17A1, the IC50 came out at 1300 nM. Besides, the “slope of the inhibition curve” value on CYP17A1 (CYP17A1 progesterone hydroxylation) is listed as 2.4. For the same molecule, the “contribution of Fe—C dative bond to the free energy of complexation” value on CYP3A4 [1] (CYP3A4, from Kd of 20-(R)-1 versus parent steroid) is given as ~ 6 kJ/mol. At CYP3A4 [1] (CYP3A4 versus CYP17A1), the “dissociation constant for CYP3A4 relative to CYP17A1” value is given as “more than a billion times higher”. This molecule also came in with a Kd on CYP3A4 [1] (human, pH 7.4, dissociation constant (Kd), protein 200 nM, 5 cm cuvette, tight-binding or quadratic equation, Fig. 4B: n = 3, 95% CI 120–215 nM) of 167 nM. Also, at CYP3A4 [1] (titration of CYP3A4), the “Soret shift on titration indicating Fe—CN—R bond formation” value is given as 435 nm and the “difference spectrum peak indicative of Fe—CN bond formation” value was 435 nm. For the same molecule, the “inhibition of CYP3A4-catalyzed nifedipine oxidation” value at CYP3A4 [2] is “no inhibition”.
